US12459951B2, “Compounds that interact with RAS superfamily proteins for treatment of cancers, inflammatory diseases, rasopathies, and fibrotic disease” (SHY Therapeutics, LLC, priority 2022, dated 2025)

System: MAPK p38 phosphorylation
Assay: MAPK p38 Activation Assay (western blot), Panc-1
Type: cell-based, human
Conditions: at 10 μM, Panc-1 pancreatic cancer cell line; starred symbols = activation
Outline: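 Panc-1 cells (KRas G12D) were treated with compound for 6 h at 37 °C, at 10 μM or as serial dilutions for IC50, with 0.3% DMSO. Method 1 used overnight serum-starved cells (0.5% FBS) stimulated with 1.5 ng/ml EGF for 15 min; Method 2 used unstimulated cells in 10% FBS. Phospho-p38 (Thr180/Tyr182) was detected by western blot.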

Row | Structure (SMILES) | % inh of MAPK p38 in Panc-1
1 | COC1CCCN(c2nc(-c3nccn3C)nn3cc(-c4ccn(C(C)C)n4)c(-c4ccccc4)c23)C1 (racemic) [Compound 21, rac 6-(1-Isopropyl-1H-pyrazol-3-yl)-4-(3-methoxypiperidin-1-yl)-2-(1-methyl-1H-imidazol-2-yl)-5-phenylpyrrolo[2,1-f][1,2,4]triazine] | H* (H* ≥ 100% activation)
2 | COc1cccc(-c2cn3nc(-c4nccn4C)nc(N[C@@H]4CC[C@@H](OC)C4)c3c2-c2ccccc2)c1Cl.Cl (racemic) [Compound 34, rac 6-(2-Chloro-3-methoxyphenyl)-N-((1R,3R)-3-methoxycyclopentyl)-2-(1-methyl-1H-imidazol-2-yl)-5-phenylpyrrolo[2,1-f][1,2,4]triazin-4-amine hydrochloride] | H (H = 100% inhibition)
3 | COc1cccc(Nc2nc(-c3nccn3C)nn3cc(-c4ccn(C(C)C)n4)c(C)c23)n1 [Compound 7, 6-(1-Isopropyl-1H-pyrazol-3-yl)-N-(6-methoxypyridin-2-yl)-5-methyl-2-(1-methyl-1H-imidazol-2-yl)pyrrolo[2,1-f][1,2,4]triazin-4-amine] | H* (H* ≥ 100% activation)
4 | CC(C)n1ccc(-c2cn3nc(-c4nccn4C)nc(O)c3c2-c2ccccc2)n1 [Compound 17, 6-(1-Isopropyl-1H-pyrazol-3-yl)-2-(1-methyl-1H-imidazol-2-yl)-5-phenylpyrrolo[2,1-f][1,2,4]triazin-4-ol] | 0 (0 = 0% inhibition)
5 | COc1cc(Nc2nc(-c3nccn3C)nn3cc(-c4ccn(C(C)C)n4)c(-c4ccccc4)c23)ncn1 [Compound 22, 6-(1-Isopropyl-1H-pyrazol-3-yl)-N-(6-methoxypyrimidin-4-yl)-2-(1-methyl-1H-imidazol-2-yl)-5-phenylpyrrolo[2,1-f][1,2,4]triazin-4-amine] | H* (H* ≥ 100% activation)
